Our source for the T/C values is PubChem BioAssay AID256 (DTP/NCI, 2004).

“And” between values parts separate entries of the source, which are not always exact repeats. Equal values may be shown once. Inconclusive results and toxic doses are left out.

This assay concerns CD2F1 mice, L1210 leukemia ip, survival T/C. In words: NCI In Vivo Anticancer Drug Screen. Data for tumor model L1210 Leukemia (intraperitoneal) in CD2F1 (CDF1) mice. Conditions: higher = longer survival. The method, boiled down: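 Ratio T/C, where T is the treated-group value and C the vehicle-dosed control value, from mice implanted with a transplantable tumor.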
Where [1] appears, read: endpoint: mean survival time, dose: 25.0 mg/kg/injection, schedule: Q01DX009 (ip), vehicle: Klucel (hydroxypropylcellulose) (HPC).
[2] abbreviates: endpoint: mean survival time, dose: 100.0 mg/kg/injection, schedule: Q04DX003 (ip), vehicle: saline with Tween-80.
Setting [3] is: endpoint: mean survival time, dose: 200.0 mg/kg/injection, schedule: Q04DX003 (ip), vehicle: saline with Tween-80.
Where [4] appears, read: endpoint: mean survival time, dose: 400.0 mg/kg/injection, schedule: Q04DX003 (ip), vehicle: saline with Tween-80.
Where [5] appears, read: endpoint: mean survival time, dose: 100.0 mg/kg/injection, schedule: Q01DX009 (ip), vehicle: saline with Tween-80.
Setting [6] is: endpoint: mean survival time, dose: 200.0 mg/kg/injection, schedule: Q01DX009 (ip), vehicle: saline with Tween-80.
The mark [7] stands for this setting: endpoint: mean survival time, dose: 100.0 mg/kg/injection, schedule: Q01DX001 (ip), vehicle: saline with Tween-80.
[8] abbreviates: endpoint: mean survival time, dose: 200.0 mg/kg/injection, schedule: Q01DX001 (ip), vehicle: saline with Tween-80.
[9] abbreviates: endpoint: mean survival time, dose: 100.0 mg/kg/injection, schedule: Q04DX003 (ip), vehicle: saline.
Where [10] appears, read: endpoint: mean survival time, dose: 200.0 mg/kg/injection, schedule: Q04DX003 (ip), vehicle: saline.
Setting [11] is: endpoint: mean survival time, dose: 400.0 mg/kg/injection, schedule: Q01DX009 (ip), vehicle: saline with Tween-80.

With `COC1OC(CO)C(O)C(OC)C1OC` (stereo not given) (tested in a mixture with another compound), the T/C (endpoint: mean survival time, dose: 100.0 mg/kg/injection, schedule: Q01DX001 (ip), vehicle: saline) was 100 % of control; the T/C (endpoint: mean survival time, dose: 200.0 mg/kg/injection, schedule: Q01DX001 (ip), vehicle: saline) is 100 % of control; the T/C (endpoint: mean survival time, dose: 400.0 mg/kg/injection, schedule: Q01DX001 (ip), vehicle: saline) is 100 % of control.
Turning to `CC(=O)Nc1c(Cl)c(Cl)c2c(c1Cl)Cc1cc(Br)ccc1-2`, under setting [1], the T/C was 109 % of control.
As to `C=CCOc1cccc[n+]1CC(=O)CC(O)(C(F)(F)F)C(F)(F)F`, the T/C was 95 % of control under setting [2], 92 % of control under setting [3] and 97 % of control under setting [4].
Take `C[n+]1c(-c2cccc(OCCOCCOc3cccc(-c4c5cc(N)ccc5c5ccc(N)cc5[n+]4C)c3)c2)c2cc(N)ccc2c2ccc(N)cc21`: the T/C runs as follows: (endpoint: median survival time, dose: 1.0 mg/kg/injection, schedule: Q01DX009 (ip), vehicle: water) 104 % of control; (endpoint: median survival time, dose: 2.0 mg/kg/injection, schedule: Q01DX009 (ip), vehicle: saline with Tween-80) 101 % of control; (endpoint: median survival time, dose: 2.0 mg/kg/injection, schedule: Q01DX009 (ip), vehicle: water) 114 % of control and 121 % of control; (endpoint: median survival time, dose: 4.0 mg/kg/injection, schedule: Q01DX009 (ip), vehicle: saline with Tween-80) 102 % of control; (endpoint: median survival time, dose: 4.0 mg/kg/injection, schedule: Q01DX009 (ip), vehicle: water) 114 % of control; (endpoint: median survival time, dose: 8.0 mg/kg/injection, schedule: Q01DX009 (ip), vehicle: saline with Tween-80) 104 % of control. Also, the T/C (endpoint: median survival time, dose: 8.0 mg/kg/injection, schedule: Q01DX009 (ip), vehicle: water) was 123 % of control; the T/C (endpoint: median survival time, dose: 16.0 mg/kg/injection, schedule: Q01DX009 (ip), vehicle: saline with Tween-80) is 105 % of control; the T/C (endpoint: median survival time, dose: 32.0 mg/kg/injection, schedule: Q01DX009 (ip), vehicle: saline with Tween-80) is 102 % of control.
Take `CCOC(=O)Nc1cc(Cl)ccc1O`: the T/C reads like this: under setting [5], 103 % of control; under setting [2], 92 % of control; under setting [6], 104 % of control; under setting [3], 103 % of control; under setting [4], 88 % of control.
Take `CCCCCCCCCCNC(=O)C[n+]1cccc(C(=O)N(CC)CC)c1`: the T/C by setting is: (endpoint: mean survival time, dose: 6.25 mg/kg/injection, schedule: Q01DX009 (ip), vehicle: saline with Tween-80) 91 % of control; (endpoint: mean survival time, dose: 12.5 mg/kg/injection, schedule: Q01DX009 (ip), vehicle: saline with Tween-80) 97 % of control; (endpoint: mean survival time, dose: 25.0 mg/kg/injection, schedule: Q01DX009 (ip), vehicle: saline with Tween-80) 91 % of control.
As for `Cc1cnc([Se])[nH]c1=O`, the T/C is, setting by setting: (endpoint: mean survival time, dose: 25.0 mg/kg/injection, schedule: Q01DX005 (ip), vehicle: water) 87 % of control; (endpoint: mean survival time, dose: 50.0 mg/kg/injection, schedule: Q01DX005 (ip), vehicle: water) 90 % of control.
In the case of `CCN(CC)CCn1[nH]c2c3ccc(=O)cc3sc3c(NCCN)ccc1c32`, the T/C was 168 % of control (endpoint: median survival time, dose: 1.5 mg/kg/injection, schedule: Q01DX009 (ip), vehicle: water); 154 % of control (endpoint: median survival time, dose: 1.56 mg/kg/injection, schedule: Q01DX005 (ip), vehicle: water); 183 % of control (endpoint: median survival time, dose: 3.0 mg/kg/injection, schedule: Q01DX005 (ip), vehicle: water); 180 % of control (endpoint: median survival time, dose: 3.0 mg/kg/injection, schedule: Q01DX009 (ip), vehicle: water); 192 % of control and 244 % of control (endpoint: median survival time, dose: 3.12 mg/kg/injection, schedule: Q01DX005 (ip), vehicle: water); 152 % of control (endpoint: median survival time, dose: 6.0 mg/kg/injection, schedule: Q01DX005 (ip), vehicle: water). Moreover, the T/C was 216 % of control (endpoint: median survival time, dose: 6.0 mg/kg/injection, schedule: Q01DX009 (ip), vehicle: water); 186 % of control and 357 % of control (endpoint: median survival time, dose: 6.25 mg/kg/injection, schedule: Q01DX005 (ip), vehicle: water); 95 % of control (endpoint: median survival time, dose: 12.0 mg/kg/injection, schedule: Q01DX005 (ip), vehicle: water); 216 % of control (endpoint: median survival time, dose: 12.0 mg/kg/injection, schedule: Q01DX009 (ip), vehicle: water); 231 % of control and 357 % of control (endpoint: median survival time, dose: 12.5 mg/kg/injection, schedule: Q01DX005 (ip), vehicle: water).
For the compound `O=[n+]1ccn2cc3ccccc3cc2c1`, the T/C is, setting by setting: (endpoint: mean survival time, dose: 12.5 mg/kg/injection, schedule: Q04DX003 (ip), vehicle: saline with Tween-80) 86 % of control; (endpoint: mean survival time, dose: 50.0 mg/kg/injection, schedule: Q04DX003 (ip), vehicle: saline with Tween-80) 100 % of control.
For `O=C1C=C(c2ccccc2)OC(=O)C1C(=O)c1ccccc1` (stereo not given), the T/C is, setting by setting: under setting [7], 98 % of control; under setting [8], 94 % of control.
For `Cc1ccc(C(C)C)c(OCCN)c1`, the T/C runs as follows: (endpoint: mean survival time, dose: 25.0 mg/kg/injection, schedule: Q04DX002 (ip), vehicle: saline) 94 % of control; (endpoint: mean survival time, dose: 50.0 mg/kg/injection, schedule: Q04DX002 (ip), vehicle: saline) 97 % of control; (endpoint: mean survival time, dose: 100.0 mg/kg/injection, schedule: Q04DX002 (ip), vehicle: saline) 93 % of control and 97 % of control.
In the case of `COC(=O)CCC(=O)NCCc1c[nH]c2ccccc12`, the T/C was 98 % of control under setting [2], 93 % of control under setting [3] and 98 % of control under setting [4].
Turning to `O=C1C(c2ccccc2)=C(c2ccccc2)c2ccc(Cl)cc21`, the T/C is, setting by setting: under setting [7], 106 % of control; under setting [8], 98 % of control; (endpoint: mean survival time, dose: 400.0 mg/kg/injection, schedule: Q01DX001 (ip), vehicle: saline with Tween-80) 97 % of control.
As to `O=[N+]([O-])c1cc(S(=O)(=O)c2ccc(F)c([N+](=O)[O-])c2)ccc1F`, the T/C (endpoint: mean survival time, dose: 6.25 mg/kg/injection, schedule: Q01DX009 (ip), vehicle: Klucel (hydroxypropylcellulose) (HPC)) is 98 % of control; the T/C (endpoint: mean survival time, dose: 12.5 mg/kg/injection, schedule: Q01DX009 (ip), vehicle: Klucel (hydroxypropylcellulose) (HPC)) was 98 % of control; the T/C under setting [1] was 98 % of control.
For the compound `CN(CCN1CCCC1)C(=O)C(O)(c1ccccc1)c1ccccc1`, the T/C under setting [9] was 96 % of control and the T/C under setting [10] was 93 % of control.
Regarding `C1CCC2(CC1)SSC1(CCCCC1)S2`, the T/C (endpoint: mean survival time, dose: 100.0 mg/kg/injection, schedule: Q01DX009 (ip), vehicle: other) was 108 % of control; the T/C (endpoint: mean survival time, dose: 200.0 mg/kg/injection, schedule: Q01DX009 (ip), vehicle: other) was 100 % of control; the T/C (endpoint: mean survival time, dose: 400.0 mg/kg/injection, schedule: Q01DX009 (ip), vehicle: other) was 110 % of control.
For the compound `NCCCOS(=O)(=O)O`, the T/C reads like this: under setting [5], 96 % of control; under setting [9], 98 % of control; under setting [6], 97 % of control; under setting [10], 101 % of control; under setting [11], 100 % of control; (endpoint: mean survival time, dose: 400.0 mg/kg/injection, schedule: Q04DX003 (ip), vehicle: saline) 95 % of control.
`Cc1c(C)c2c(c(C)c1O)CC(CC(=O)CO)CO2` (stereo not given): the T/C reads like this: under setting [5], 93 % of control; under setting [6], 100 % of control; under setting [11], 93 % of control.
In the case of `CC(C)n1c(=S)[nH]c2ccccc2c1=O`, the T/C reads like this: (endpoint: mean survival time, dose: 100.0 mg/kg/injection, schedule: Q01DX009 (ip), vehicle: saline) 97 % of control; (endpoint: mean survival time, dose: 200.0 mg/kg/injection, schedule: Q01DX009 (ip), vehicle: saline) 100 % of control; (endpoint: mean survival time, dose: 400.0 mg/kg/injection, schedule: Q01DX009 (ip), vehicle: saline) 100 % of control.
Turning to `O=c1[nH]c2c(ccc3cnccc32)c2c1CCC2`, the T/C is, setting by setting: (endpoint: mean survival time, dose: 3.12 mg/kg/injection, schedule: Q01DX009 (ip), vehicle: saline) 107 % of control; (endpoint: mean survival time, dose: 6.25 mg/kg/injection, schedule: Q01DX009 (ip), vehicle: saline) 100 % of control and 110 % of control; (endpoint: mean survival time, dose: 12.5 mg/kg/injection, schedule: Q01DX009 (ip), vehicle: saline) 96 % of control and 107 % of control; (endpoint: mean survival time, dose: 25.0 mg/kg/injection, schedule: Q01DX009 (ip), vehicle: saline) 119 % of control and 111 % of control; (endpoint: mean survival time, dose: 50.0 mg/kg/injection, schedule: Q01DX009 (ip), vehicle: saline) 88 % of control and 96 % of control.
